The record followed here is the METLIN SMRT retention time set (Domingo-Almenara et al. 2019).

Structures are written as SMILES.

This data set in a line: gradient 5% acetonitrile 3 min, to 50% in 2 min, to 85% in 15 min, held 3 min, 100 µL/min. The note with it: column: Zorbax Extend-C18 2.1 x 50 mm; eluents: water / acetonitrile, 0.1% formic acid. Put shortly:
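Each retention time is based on an adduct peak selected computationally and verified by manual inspection. Measurements used HPLC–quadrupole time-of-flight mass spectrometry in positive and negative ionization mode on mixtures of ~100 pure standards. Chromatography ran on a Zorbax Extend-C18 column (2.1 × 50 mm, 1.8 μm) at 100 μL/min with water and acetonitrile, each containing 0.1% formic acid, and dead and dwell volumes of 40 μL and 900 μL.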
For `CCOc1ccccc1CNC(=O)C1CCCN(c2nnc(C)c3c(C)n(-c4ccccc4)nc23)C1` (stereo not given), the RP-LC retention time turned out to be 774 s.
As for `Cc1oc(-c2cccs2)nc1COc1cc(C)c2c(C)nn(C)c2n1`, the RP-LC retention time was determined as 1060 s.
To `COC(=O)c1ccc(C(=O)Nc2ccc(CC(=O)NC3CC3)cc2)cc1` belongs 657 s.
`O=C(Cn1cc(-c2ccc(F)cc2)oc1=O)NCc1ccc(N2CCCCC2)cc1` had an RP-LC retention time of 635 s.
To `CSc1ccccc1NS(=O)(=O)c1cc2c(s1)CCN(C(=O)C1CC1)C2` belongs 851 s; to `Cc1ccccc1-c1nc(-c2nnn(Cc3ccccc3)c2C)no1`, 1120 s.
Turning to `CCCNC(=O)c1cn2ccnc(-c3ccc(C)cc3)c2n1`, the RP-LC retention time worked out at 878 s.
To `COc1ccc(CC(=O)N2CCc3c(c(CO)nn3CC3CC3)C2)cc1` belongs 715 s.
To `COc1cccc(-c2nc(Cn3c(=O)c4c(C)cc(C)nc4n(C)c3=O)c(C)o2)c1OC` belongs 1130 s.
The compound `CN(C)c1cccc(-c2nn3c(-c4ccc5ccccc5n4)nnc3s2)c1` displayed an RP-LC retention time of 1070 s.
As for `O=C(Nc1ccc2c(c1)OCCO2)N1CCCn2nc(-c3ccncc3)cc2C1`, the RP-LC retention time was determined as 590 s.
`O=C(c1nnc(-c2ccc(S(=O)(=O)N3CCCC3)cc2)o1)N1CCCCC1` came in with an RP-LC retention time of 847 s.
Under `O=C(c1cnn2c(C(F)(F)F)cc(-c3ccccc3)nc12)N1CCN(c2ccccn2)CC1` stands 687 s.
`O=C(Nc1nnc(-c2ccsc2)o1)c1ccno1`: the RP-LC retention time worked out at 617 s.
Regarding `CC(C)S(=O)(=O)N1CCC(c2noc(-c3cccnc3)n2)C1` (stereo not given), the RP-LC retention time is 730 s.
Regarding `COc1cccc(N2CCN(C(=O)C3CCN(S(=O)(=O)c4cn(C(C)C)cn4)CC3)CC2)c1`, the RP-LC retention time stood at 764 s.
To `COc1ncc(C(=O)NCc2cc(F)cc(F)c2)cn1` belongs 718 s; to `Cc1ccc(CNc2nnc(-c3nnc(C)o3)c3ccccc23)cc1`, 830 s.
Under `CCN1C(=O)C(C)(C(=O)NCc2ccccc2OC)Oc2cccnc21` (stereo not given) stands 843 s; under `O=C(NCCC1CCN(C(=O)Nc2ccc(F)cc2F)CC1)c1ccsc1`, 757 s; under `CN1CC[C@@]2(C)c3cc(OC(=O)Nc4ccccc4)ccc3N(C)[C@@H]12`, 718 s.
Under `COc1ccc(N2CCN(C(CNC(=O)C(=O)Nc3ccon3)c3ccco3)CC2)cc1` (stereo not given) stands 591 s; under `CC(C)Cn1c(=O)c2nscc2n(CC(=O)NC2CCCC2)c1=O`, 731 s; under `COc1cc(NC(=O)N2CCC(N3CCN(Cc4ccccc4)C3=O)CC2)cc(OC)c1`, 804 s.
Regarding `O=C(Cn1nc2c(N3CCCCCC3)nccn2c1=O)Nc1ccc(Cl)cc1F`, the RP-LC retention time was determined as 786 s.
Under `COc1ccc(-c2noc(Cn3ccn(-c4c(C)cccc4C)c(=O)c3=O)n2)cc1OC` stands 797 s.
Under `CCCn1c(=O)c(C)nc2cc(-c3noc(/C=C/c4ccc(OC)c(OC)c4)n3)ccc21` stands 735 s; under `CCCN1CC(Oc2ccc(-c3noc(-c4cccnc4)n3)cc2)C1`, 621 s.
Under `COc1ccccc1OCCNC(=O)C1CC(=O)N(c2n[nH]c3cccc(F)c23)C1` (stereo not given) stands 688 s; under `CCCCc1ccc(NC(=O)C2CCN(C(=O)C(C)(C)C)CC2)cc1`, 1020 s; under `CCCCN(CC)c1nc(C)nc2c1c(C)cn2-c1c(C)cc(C)cc1C`, 945 s.
With `O=S(=O)(Nc1ccc(F)cc1F)c1c[nH]c2ncccc12`, the RP-LC retention time is 722 s.
Under `Cc1noc(-c2cccc(OC3CN(C(=O)NC4CCCC4)C3)c2)n1` stands 850 s; under `Cn1cc(-c2cc3n(n2)CCC(=O)N3CC(=O)NCc2ccco2)c2ccccc21`, 756 s.
In turn, `Cc1cccc(NC(=O)C2CCCN2S(=O)(=O)c2ccc3c(c2)NC(=O)CO3)c1C` (stereo not given) displayed an RP-LC retention time of 805 s.
To `O=C(COc1ccccc1)Nc1ccccc1-c1nc2ccccc2s1` belongs 1320 s; to `CCOc1ccc(NC(=O)Cn2ncc3c(N4CCN(c5ccccn5)CC4)ncnc32)cc1`, 624 s.
Under `Cc1cccc(NC(=O)N(C)CCc2noc(COc3ccccc3)n2)c1` stands 927 s; under `O=C(c1ccc(Br)o1)N1CCc2nc(-c3ccc(Cl)cc3)ncc2C1`, 1100 s.
Take `Cc1cc(=O)n(CC(=O)NCc2ccccc2)c(N)n1`: the RP-LC retention time turned out to be 570 s.
To `CCc1nnc(NC(=O)CSc2nc3c(c(=O)n2CCOC)SC(C)C3)s1` (stereo not given) belongs 664 s; to `CN(C)CCNC(=O)c1ccc(CS(=O)c2ccc(Cl)cc2)o1` (stereo not given), 591 s; to `O=C(NCCNC(=O)c1ccc(N2CCOCC2)nn1)c1ccc(NC(=O)C2CC2)cc1`, 599 s.
For `CC(C)c1cnn2c(NCc3ccccc3)cc(NCCCCCCN)nc12`, the RP-LC retention time came to 653 s.
The compound `O=C1[C@H]2CN(Cc3ccccc3F)C[C@H]2C(=O)N1Cc1ccc2c(c1)OCO2` gave an RP-LC retention time of 792 s.
To `CC(NC(=O)CN1C(=O)CCn2nc(-c3cn(C)c4ccccc34)cc21)c1ccc2c(c1)OCCO2` (stereo not given) belongs 797 s.
As for `O=c1oc2cc(O)c(Cl)cc2c2ccccc12`, the RP-LC retention time was found to be 847 s.
In turn, `O=C(Nc1cnc(N2CCCCC2)nc1)c1ccccc1Br` yielded an RP-LC retention time of 902 s.
`COc1ccc(CC(=O)N2CCC3(CC2)NC(=O)c2cc(C)ccc2N3C)cc1` gave an RP-LC retention time of 769 s.
To `Cc1nc(-c2noc(-c3ccccc3)n2)cn1CC(=O)Nc1ccc2c(c1)OCO2` belongs 803 s; to `Brc1ccccc1Cc1nc(-c2ccn3cnnc3c2)no1`, 806 s; to `CC(Oc1ccccc1)c1nc(-c2ccc3c(c2)nnn3CCC(=O)N2CCOCC2)no1` (stereo not given), 852 s.
To `CC(CCc1ccccc1)NC(=O)Cc1csc2nc(-c3ccccc3)cn12` (stereo not given) belongs 850 s.
For `O=C(Nc1nc(-c2cccnc2)cs1)C(c1ccccc1)n1cccc1` (stereo not given), the RP-LC retention time was 662 s.
In turn, `Cc1c(-c2ccccc2)nc2ccc(Br)cc2c1C(=O)O` gave an RP-LC retention time of 698 s.
In turn, `CC(C)CN(CC1CN(C(=O)COc2ccccc2)CCO1)C(=O)c1ccccc1` (stereo not given) returned an RP-LC retention time of 851 s.
To `CCc1ccc(NC(=O)Cn2nc3cc(C)nc(Nc4ccc(C)c(F)c4)n3c2=O)cc1` belongs 1190 s.
Under `CCCNC(=O)c1cn(-c2ccc(-c3nc(C(C)C)no3)cn2)cn1` stands 847 s.
`Cc1cnc(C(=O)N2CCC(N3CC(OCC4CC4)C34CCOCC4)CC2)cn1` (stereo not given): the RP-LC retention time was 586 s.
In turn, `O=C(Cn1cnc2nc3c(cc2c1=O)CCCC3)NCCc1ccccc1` had an RP-LC retention time of 728 s.
Take `CSc1ccc(-c2noc(Cn3c(=O)n(-c4ccccc4)c(=O)c4sccc43)n2)cc1`: the RP-LC retention time was determined as 1020 s.
Under `CC1=C(c2cccc(Cl)c2)S(=O)(=O)N=C1N1CCCN(C(=O)NCC(C)C)CC1` stands 814 s; under `COc1ccc(NC(=O)N2CCN(c3cc(C)nc(N4CCCC4)n3)CC2)c(C)c1`, 692 s.
Take `O=c1cc(CN(Cc2ccccc2)Cc2ccccc2)nc2ccc(Cl)cn12`: the RP-LC retention time worked out at 745 s.
Regarding `CON=C(C(=O)N[C@@H]1C(=O)N2C(C(=O)O)=C(CSc3nnnn3C)CS[C@H]12)c1csc(N)n1`, the RP-LC retention time was found to be 621 s.
To `CCCn1nc(CNC(=O)c2cccs2)c2ccccc21` belongs 785 s; to `O=C(NCC1CCN(C(=O)Nc2ccc(F)cc2)CC1)c1ccsc1`, 682 s.
To `CC(C)C(=O)N1CCc2ccccc2C1C(=O)N1CCN(c2ccc(F)cc2)CC1` (stereo not given) belongs 930 s; to `O=C(NC1CCN(c2cc(-c3ccc(F)cc3)[nH]n2)C1)c1ccccc1` (stereo not given), 705 s.
Under `CCCn1cc(CCNC(=O)Nc2ccc(Br)c(C)c2)c2cccnc21` stands 902 s; under `CCN1C(=O)NC(c2cccc(F)c2)C2=C1CN(CCC(=O)NCCOC)C2=O` (stereo not given), 586 s.
Compound `Cc1cccc(C(=O)NCC2CCCN(S(=O)(=O)c3ccc4c(c3)CCCC4)C2)c1` (stereo not given) showed an RP-LC retention time of 1150 s.
With `O=C(C1CCN(c2cnn(Cc3ccccc3)c(=O)c2)CC1)N1CCSCC1`, the RP-LC retention time amounted to 648 s.
To `O=C1NC(C(=O)NC2CCCC2)Cn2cccc21` (stereo not given) belongs 628 s; to `Cc1ccc(NC(=O)C2(C)Oc3cccnc3NC2=O)c(C)c1` (stereo not given), 727 s.
For `CC(C)NC(=O)N1CCCC(c2cccc(C(=O)NCC3CCCCC3)c2)C1` (stereo not given), the RP-LC retention time stood at 945 s.
Take `Cc1ccc(CNC(=O)Cn2c(C)cc(-c3nnc(C4CCC4)o3)c2C)cc1C`: the RP-LC retention time came to 947 s.
Under `COC(=O)c1ccccc1NS(=O)(=O)c1ccc(Br)cc1` stands 1030 s.
To `Cc1ccc(N(C)S(=O)(=O)c2cc(-c3[nH]ncc3C(=O)N(C)C)oc2C)cc1` belongs 729 s.
To `CC(=O)N1c2ccc(S(=O)(=O)N3CCCC3)cc2CC1C(=O)NC1CCCCCCC1` (stereo not given) belongs 907 s.
